Literature values as cited in patent US20090252757A1, “METHODS AND COMPOSITIONS FOR INHIBITING HIV INFECTION” (IRM LLC, priority 2005, published 2009).

Target: MLK3 (Homo sapiens, UniProt Q16584)
Details: Roux et al., J. Biol. Chem. 277:49473-80, 2002

MLK3, sequence (Q16584 whole entry): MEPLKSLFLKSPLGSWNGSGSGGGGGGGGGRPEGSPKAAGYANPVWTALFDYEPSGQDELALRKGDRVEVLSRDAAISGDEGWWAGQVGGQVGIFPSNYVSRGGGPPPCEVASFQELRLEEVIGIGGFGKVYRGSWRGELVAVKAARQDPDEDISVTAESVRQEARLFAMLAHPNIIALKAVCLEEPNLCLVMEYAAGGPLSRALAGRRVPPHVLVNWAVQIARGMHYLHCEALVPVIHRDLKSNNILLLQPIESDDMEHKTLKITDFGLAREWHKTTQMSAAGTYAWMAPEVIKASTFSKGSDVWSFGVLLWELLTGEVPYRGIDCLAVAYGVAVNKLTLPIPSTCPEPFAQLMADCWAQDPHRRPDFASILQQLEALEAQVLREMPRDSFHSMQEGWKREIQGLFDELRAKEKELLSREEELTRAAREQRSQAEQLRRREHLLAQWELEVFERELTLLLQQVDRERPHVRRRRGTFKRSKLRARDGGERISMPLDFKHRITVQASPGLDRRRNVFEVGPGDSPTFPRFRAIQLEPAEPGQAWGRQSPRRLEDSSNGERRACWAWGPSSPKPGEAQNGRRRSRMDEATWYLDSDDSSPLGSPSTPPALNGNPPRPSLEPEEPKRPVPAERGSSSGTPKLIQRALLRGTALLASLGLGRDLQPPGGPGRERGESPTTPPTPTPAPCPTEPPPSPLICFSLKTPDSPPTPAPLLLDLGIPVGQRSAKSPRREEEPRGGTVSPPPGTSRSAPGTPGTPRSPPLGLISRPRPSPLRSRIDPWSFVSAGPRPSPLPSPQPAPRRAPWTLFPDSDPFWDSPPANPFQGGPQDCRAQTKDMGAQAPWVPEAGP

Q: For `CCSCc1ccc2c(c1)c1c3c(c4c5cc(CSCC)ccc5n5c4c1n2[C@H]1C[C@](O)(C(=O)OC)[C@]5(C)O1)CNC3=O` [CEP1347], which “inhibition of MLK3 kinase activity” value is on record?
A: inhibit the kinase activity of MLK3
